Results reported in publication PMC5601180, “Uptake and metabolism of sulphated steroids by the blood–brain barrier in the adult male rat” (Journal of Neurochemistry, 2017).

Key:
efflux transporters = test: Brain perfusion in situ with efflux transporter inhibitors co-perfused with 3H-steroid sulphate; format: in vivo, rat; conditions: GF120918 3 μM or MK571 50 μM co-perfused, alone or in combination; 0.5 min perfusion
Protocol: Figure 3 Effect of the efflux inhibitors GF120918 (3 μM) and MK571 (50 μM), alone or in combination, on the brain uptake of either ^3H‐dehydroepiandrosterone sulphate (DHEAS) or ^3H‐pregnenolone sulphate (PregS) after 0.5 min perfusion. […] All values mean ± SEM, n = 3. The effect of 0.5 mM of the corresponding unlabelled steroid sulphate (SS) in addition to the inhibitors is also shown. […] The inhibitors GF120918 and MK571 were dissolved in dimethylsulphoxide to a maximum final concentration of 0.8% (v/v) in the perfusate.

[1] = Rat brain perfusion in situ: uptake of 3H-steroid sulphates and markers (Vd, Kin, PS); conditions: for K in, unidirectional transfer coefficient / PS, permeability–surface area product: 0.5 min perfusion; for K in, unidirectional transfer coefficient: corrected for vascular space (sucrose Vd), mean ± SEM, n ≥ 3; for PS, permeability–surface area product: from K in by Renkin–Crone equation with diazepam K in as flow
Protocol: Each animal also received intraperitoneal heparin, 10 000 U/kg. Body temperature was maintained at 37°C with a heating pad.
For analysis of free and sulphated steroids and for steryl‐sulfate sulfohydrolase (EC 3.1.6.2; trivial name steroid sulphatase) assays, both hemispheres were perfused, via right and left common carotid arteries, and 0.8 mM MgCl2 replaced 0.8 mM MgSO4 in the solution. The perfusate was delivered at a constant rate of 6 mL/min for hemi‐perfusions and 12 mL/min for bilateral perfusions, maintaining a net perfusion pressure of 40–70 mm Hg.
The remaining tissue of the right hemisphere was homogenised and samples (~50 mg) taken in triplicate (“remainder samples”). Triplicate samples of the perfusate were also taken. Samples were weighed into vials and dissolved (48 h at 20°C) in 0.5 mL Solvable before addition of 4.5 mL Optiphase 2 scintillation fluid for counting of radioactivity.
Brain uptake was calculated as a volume of distribution V d, where V d (μL/g) = (dpm/g tissue)/(dpm/μL perfusate). The unidirectional transfer coefficients, (K in, μL/g/min), for DHEAS and for PregS were calculated from the V d at 0.5 min, corrected with the V d for the vascular space marker sucrose.

[2] = Bilateral brain perfusion, capillary depletion and separation of free and sulphated 3H-steroids; format: in vivo, rat
Protocol: Brains were bilaterally perfused for 0.5 min with ^3H‐labelled DHEAS 1.25 or 6.0 μCi (0.046 or 0.221 MBq)/mL (13.5 or 64.9 nM) or PregS 1.0 μCi (0.037 MBq)/mL (47.6 nM). The hindbrain was removed and each hemisphere homogenised in 2 vols (w/v) buffer containing (in mM) NaCl 141, KCl 4, NaH2PO4 1, CaCl2 2.8, MgCl2 1, HEPES 10, D‐glucose 10, pH 7.4. A sample of the homogenate of the whole right hemisphere was removed for scintillation counting, and the remainder retained as the whole brain homogenate.
The left hemisphere homogenate was separated into capillary‐enriched and capillary‐depleted fractions by the method of Triguero et al. (1990). For this, an equal volume of 26% dextran (w/w) solution was added to the homogenate and a sample taken for liquid scintillation counting before centrifugation at 5300 g for 15 min at 4°C. The upper layer was taken as the capillary‐depleted fraction and the pellet as the capillary‐enriched fraction.
Before extraction, fractions were sonicated in 5 vols ice‐cold, 5 mM potassium phosphate buffer, pH 7. Small portions (150 μL) were removed for measurement of protein content (Bradford 1976) and total radioactivity. For the latter, homogenate was solubilised (15 min, 20°C) in 10 vols Soluene then bleached (2 h, 50°C) with 0.3 vol hydrogen peroxide before counting in Ecoscint H containing Triton X‐100 (6% v/v), glacial acetic acid (0.6% v/v) and butylated hydroxytoluene (2% w/v). The remainder of each homogenate was extracted as described in detail elsewhere (Ebner et al. 2006; Sujkovic et al. 2009), to give free steroid and steroid sulphate fractions. First, homogenates were extracted into 20 vols ethanol containing acetic acid 3% (v/v). After centrifugation (28 000 g, 30 min, 25°C) to remove denatured protein, the extracts were delipidated by partitioning three times against 10 vols isooctane. Extracts were dried down under vacuum and redissolved in ethanol, which was then diluted to 20% v/v in 5 mM potassium phosphate buffer, pH 7.0 at a total volume of 20 ml. Separation of free and sulphated steroids was achieved by passage through a 60 mg Oasis MAX® cartridge. After washing the cartridge with 5 mL ethanol at 20% v/v in ammonium acetate (20 mM, pH 7), free steroids were eluted in 4 mL ethyl acetate. Passage of 20 mL ethanol at 60% v/v in formate/pyridine buffer (20 mM, pH 3) eluted any steroid glucuronides present. Finally, steroid sulphates were eluted in 30 mL 60% v/v ethanol containing ammonium carbonate 1% (w/v). To measure the radioactivity of each fraction, portions were dried down and then redissolved in Ecoscint H for counting. The remainder was dried down, redissolved in ethanol 96% v/v and stored at −20°C for subsequent analysis by TLC.

[3] = TLC analysis of 3H-steroid metabolites in brain fractions after perfusion; format: in vivo, rat; conditions: after 0.5 min perfusion with the 3H-steroid sulphate
Description: For the analysis of ^3H‐steroid metabolites, samples were spotted onto TLC plates for chromatography in the following solvent systems: A (for sulphated steroids), ethyl acetate:ethanol:ammonia (5 : 5 : 1, v/v); B (for free steroids) cyclohexane:n‐butyl acetate (1 : 2, v/v); C (for acetylated steroids), isooctane:ethyl acetate (13 : 7, v/v). Non‐radioactive steroid standards could be visualised by exposure to iodine vapour whereas the ^3H‐steroids were detected by placing the TLC plates in contact with imaging film for subsequent visualisation in a phosphorimager. Additional analysis of the steroid sulphates employed elution from the TLC plate in ammoniated ethanol then drying down and redissolving in sodium acetate buffer, 0.5 M, pH 5.0 for desulphation by incubation with Helix sulphatase (1 mg/mL, 40°C overnight followed by 55°C for 3 h). The resulting free steroids were adsorbed onto a 60 mg Oasis HLB® cartridge and eluted in 5 mL ethyl acetate. This eluate was dried down and analysed by TLC as above for free steroids. Further identification of ^3H‐steroid metabolites was obtained by acetylating them alongside both ^3H‐labelled and non‐radioactive standards. The TLC eluates or standards were dried down and redissolved in 200 μL pyridine. An equal volume of acetic anhydride was then added followed by incubation at 37°C for 2 h. […]

[4] = after 0.5 min bilateral perfusion, mean ± SEM, n = 5

## COc1cc2c(cc1OC)CN(CCc1ccc(NC(=O)c3cccc4c(=O)c5cccc(OC)c5[nH]c34)cc1)CC2.Cl [GF120918, 9,10‐dihydro‐5‐methoxy‐9‐oxo‐N‐[4‐[2‐(1,2,3,4‐tetrahydro‐6,7‐dimethoxy‐2‐isoquinolinyl)ethyl]phenyl]‐4‐acridine‐carboxamide hydrochloride]
Efflux transporters
  effect on brain uptake of 3H-DHEAS: significant decrease in uptake
  effect on brain uptake of 3H-PregS: significant decrease in uptake

## CN(C)C(=O)CCSC(SCCC(=O)O)c1cccc(/C=C/c2ccc3ccc(Cl)cc3n2)c1 (stereo not drawn) [MK571, 3‐[[[3‐[(1E)‐2‐(7‐Chloro‐2‐quinolinyl)ethenyl]phenyl][[3‐(dimethylamino)‐3‐oxopropyl]thio]methyl]thio]propanoic acid]
Efflux transporters
  effect on brain uptake of 3H-DHEAS: significant decrease in uptake
  effect on brain uptake of 3H-PregS: significant decrease in uptake

## CC(=O)[C@H]1CCC2C3CC=C4C[C@@H](OS(=O)(=O)O)CC[C@]4(C)C3CC[C@@]21C (stereo partly drawn) [PregS, pregnenolone sulphate]
[1]; Cerebellum
  K in, unidirectional transfer coefficient: 256.8 ± 43.7 µL/g/min
  PS, permeability–surface area product: 392.6 ± 103.4 µL/g/min
[1]; Hippocampus
  K in, unidirectional transfer coefficient: 292.1 ± 24.2 µL/g/min
  PS, permeability–surface area product: 303.5 ± 26.0 µL/g/min
[1]; Hypothalamus
  K in, unidirectional transfer coefficient: 277.6 ± 48.8 µL/g/min
  PS, permeability–surface area product: 295.8 ± 54.8 µL/g/min
[1]; Medulla
  K in, unidirectional transfer coefficient: 196.4 ± 39.5 µL/g/min
  PS, permeability–surface area product: 328.6 ± 117.5 µL/g/min
[1]; PS from K in as slope of Vd against time 0.25 to 0.5 min, implies net efflux
  position of log PS in plot against cLog Poct relative to the line for passively permeating compounds: below the 95% confidence limits of the line of best fit for passively permeating compounds
[1]; Parietal cortex
  K in, unidirectional transfer coefficient: 351.5 ± 9.8 µL/g/min
  PS, permeability–surface area product: 377.2 ± 11.3 µL/g/min
[1]; Remainder of brain tissue
  K in, unidirectional transfer coefficient: 311.2 ± 20.8 µL/g/min
  PS, permeability–surface area product: 326.5 ± 22.9 µL/g/min
[1]; Striatum
  K in, unidirectional transfer coefficient: 328.6 ± 41.9 µL/g/min
  PS, permeability–surface area product: 351.5 ± 48.1 µL/g/min
[1]; Sup. colliculus
  K in, unidirectional transfer coefficient: 404.9 ± 30.4 µL/g/min
  PS, permeability–surface area product: 419.6 ± 32.5 µL/g/min
[1]; rat, in vivo
  V d, corrected for sucrose space (vascular volume), control: 165.63 ± 10.40 µL/g
  time at which brain uptake (Vd) reached a maximum: ≤ 1 min
[2]; [4]
  radioactivity in capillary fraction: 1856 ± 245 dpm/mg protein
  radioactivity in parenchyma fraction: 1988 ± 328 dpm/mg protein
  recovery of total homogenate radioactivity into capillary fraction: 8.8 ± 1.8%
  recovery of total homogenate radioactivity into parenchyma fraction: 68.0 ± 10.0%
[2]; after 0.5 min perfusion, Fig. 4, p < 0.02
  percentage of 3H-label as free steroid, parenchyma versus capillary: significantly higher percentage of the free steroid in the parenchyma than in the brain capillaries
[2]; within 0.5 min of uptake, brain perfusion in situ
  desulphation on uptake into brain: > 50%
[3]
  metabolism in brain fractions: no further metabolism of PregS beyond the liberation of free steroid pregnenolone
